Test results from patent publication US6605614B2, “[1,8] naphthyridine derivatives having antiviral activity” (BioChem Pharma Inc., priority 1999, dated 2003).
pIC50: −log10 of the molar value. Where a name gives a salt, the structure may show the parent alone.

What was measured:
BVDV(NADL) = test: WST-1 based BVDV anti-viral assay (CPE reduction in infected MDBK cells); assay type: cell-based; conditions: Bovine viral diarrhea virus isolates and strains, 96 h, MDBK cells infected with cytopathic BVDV (NADL), MOI 0.006 to 0.01, 4 days incubation, WST-1 readout, read-out: BVDV antiviral effect IC50
Description: Currently, the WST-1 based BVDV assay, is being used as surrogate to evaluate potential anti-HCV agents since BVDV (bovine viral diarrhea virus) shares functional homology with the HCV.
To determine the anti-viral effect of the compounds, MDBK cells were infected with the cytopathic strain of BVDV(NADL) using a 0.006 to 0.01 MOI. 3000 cells were then seeded in each well of a 96-well plate containing the compound. The final volume was 200 μl of media per wells. […] Cell culture was then incubated for another 2 hrs at 37° C., after which 20 μl of 10% SDS was added to each well in order to inactivate the virus and the OD at 450 nm was determined using a microplate reader (Dynatech MR5000). […]

[1] = Compound toxicity, WST-1, non-infected MDBK cells; assay type: cell-based; conditions: bovine, 4 days incubation, WST-1 readout
Description: To determine the anti-viral effect of the compounds, MDBK cells were infected with the cytopathic strain of BVDV(NADL) using a 0.006 to 0.01 MOI. 3000 cells were then seeded in each well of a 96-well plate containing the compound. The final volume was 200 μl of media per wells. […] Cell culture was then incubated for another 2 hrs at 37° C., after which 20 μl of 10% SDS was added to each well in order to inactivate the virus and the OD at 450 nm was determined using a microplate reader (Dynatech MR5000).
In parallel, the same experiment was performed using non-infected cells to determine the compound toxicity. […]

| Compound | pIC50 (BVDV(NADL)) | CC50 at 4 days [1] |
| --- | --- | --- |
| O=C(NCc1ccccc1Cl)c1ccc2cccnc2n1 [Compound #17, [1,8] naphthyridine-2-carboxylic acid 2-chloro-benzylamide] | ~5.44 | > 67.2 µM |
| O=C(Nc1nc2ccccc2s1)c1ccc2cccnc2n1 [Compound #23, [1,8] naphthyridine-2-carboxylic acid benzothiazol-2-ylamide] | – | > 6.5 µM |
| O=C(Nc1cccnc1)c1ccc2cccnc2n1 [Compound #29, [1,8] naphthyridine-2-carboxylic acid pyridin-3-yl-amide] | ~5.49 | > 79.9 µM |
| O=C(Nc1ccccn1)c1ccc2cccnc2n1 [Compound #15, [1,8] naphthyridine-2-carboxylic acid pyridin-2-ylamide] | – | > 79.9 µM |
| O=C(Nc1nccs1)c1ccc2cccnc2n1 [Compound #22, [1,8] naphthyridine-2-carboxylic acid thiazol-2-ylamide] | – | > 78 µM |
| O=C(Nc1ccccc1F)c1ccc2cccnc2n1 [Compound #24, [1,8] naphthyridine-2-carboxylic acid (2-fluoro-phenyl)-amide] | ~5.12 | > 74.8 µM |
| O=C(Nc1ccccc1)c1ccc2cccnc2n1 [Compound #28, [1,8] naphthyridine-2-carboxylic acid phenyl-amide] | – | > 80.2 µM |
| O=C(Nc1cccc([N+](=O)[O-])c1)c1ccc2cccnc2n1 [Compound #19, [1,8] naphthyridine-2-carboxylic acid (3-nitrophenyl)-amide] | ~5.77 | > 68 µM |
| O=C(NCc1ccccn1)c1ccc2cccnc2n1 [Compound #13, [1,8] naphthyridine-2-carboxylic acid (pyridin-2-ylmethyl)-amide] | – | > 75.7 µM |
| CC[C@@H](C)Oc1ccccc1CNC(=O)c1ccc2cccnc2n1 [Compound #10, (−)-[1,8] naphthyridine-2-carboxylic acid 2-sec-butoxy-benzylamide] | < 5.22 | > 6 µM |
| O=C(NCc1ccccc1F)c1ccc2cccnc2n1 [Compound #16, [1,8] naphthyridine-2-carboxylic acid 2-fluoro-benzylamide] | ~5.96 | > 71.1 µM |
| COc1cccc(CNC(=O)c2ccc3cccnc3n2)c1 [Compound #4, [1,8] naphthyridine-2-carboxylic acid 3-methoxy-benzylamide] | ~5.17 | > 68.2 µM |
| O=C(NCc1cccc(C(F)(F)F)c1)c1ccc2cccnc2n1 [Compound #31, [1,8] naphthyridine-2-carboxylic acid (phenylmethyl-3-trifluoromethyl)-amide] | ~5.52 | > 60.4 µM |
| COc1cc(OC)c(CNC(=O)c2ccc3cccnc3n2)c(OC)c1 [Compound #5, [1,8] naphthyridine-2-carboxylic acid 2,4,6-trimethoxy-benzylamide] | ~5.96 | > 56.6 µM |
| O=C(NCc1cccnc1)c1ccc2cccnc2n1 [Compound #12, [1,8] naphthyridine-2-carboxylic acid (pyridin-3-ylmethyl)-amide] | ~4.72 | > 75.7 µM |
| O=C(Nc1cccc(C(F)(F)F)c1)c1ccc2cccnc2n1 [Compound #30, [1,8] naphthyridine-2-carboxylic acid (phenyl-3-trifluoromethyl)-amide] | ~6.22 | 6.3 µM |
| COc1ccccc1CNC(=N)c1ccc2cccnc2n1 [Compound #27, N-(2-methoxy-benzyl)-[1,8]naphthyridine-2-carboxamidine trifluoroacetate] | ~6.48 | > 63.2 µM |
| COc1ccc(CNC(=O)c2ccc3cccnc3n2)cc1 [Compound #3, [1,8] naphthyridine-2-carboxylic acid 4-methoxy-benzylamide] | ~5.77 | > 68.2 µM |
| CC(C)Oc1ccccc1CNC(=O)c1ccc2cccnc2n1 [Compound #8, [1,8] naphthyridine-2-carboxylic acid 2-isopropoxy-benzylamide] | > 4.21 | > 62.2 µM |
| O=C(NCc1ccccc1)c1ccc2cccnc2n1 [Compound #2, [1,8] naphthyridine-2-carboxylic acid benzylamide] | > 4.12 | > 76 µM |
